Experimental data reported in patent US6649421B1, “Antibodies against phoshorylated VASP (vasodilator-stimulated phosphoprotein), hybridoma cells for their preparation, and their use” (Vasopharm Biotech GmbH, priority 1997, dated 2003).

Test system: VASP phosphorylation in rat thrombocytes
Assay: Western blot of VASP phosphorylation in rat thrombocytes
Assay type: cell-based
Conditions: 5 min incubation
Protocol: Rat thrombocytes (0.7×10^9 cell/ml) were incubated for 5 min with 100 μM sodium nitroprusside (SNP), with 10 μM prostaglandin E1(PgE1) or without either of these additions. The extracts of these rat thrombocytes were analyzed by Western blotting. […] Similar results are also obtained using mouse thrombocytes.

CCCCC[C@H](O)/C=C/[C@H]1[C@H](O)CC(=O)[C@@H]1CCCCCCC(=O)O [PgE1, prostaglandin E1]
Phosphorylation-dependent shift of VASP from 46 kDa to 50 kDa (serine 157 phosphorylation): also took place in rat thrombocytes | Phosphorylation-dependent signal given by the 16C2 antibody (serine 239 phosphorylation): also took place in rat thrombocytes
